From PubChem BioAssay (NCI)
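Compound exposure: 48 hours, 5 concentrations, 96-well plates. The concentration for 50% growth inhibition is given as GI50. TGI: total growth inhibition.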 Activity calls are given as the source filed them. Cut-off read from the data, not from the text of the source: active = GI50 below about 0.43 µM; inactive = the rest.

Assays:
Test in all cases: NCI anticancer screen, dose series, 48 h
CCRF-CEM leukemia = test system: CCRF-CEM leukemia
COLO 205 colon = test system: COLO 205 colon
HL-60(TB) leukemia = test system: HL-60(TB) leukemia
IGROV1 ovarian = test system: IGROV1 ovarian
NCI-H460 lung = test system: NCI-H460 lung
OVCAR-3 ovarian = test system: OVCAR-3 ovarian
SK-MEL-28 melanoma = test system: SK-MEL-28 melanoma
SK-OV-3 ovarian = test system: SK-OV-3 ovarian

Compound | GI50 (CCRF-CEM leukemia) | TGI (CCRF-CEM leukemia) | GI50 (COLO 205 colon) | TGI (COLO 205 colon) | GI50 (HL-60(TB) leukemia) | TGI (HL-60(TB) leukemia) | GI50 (IGROV1 ovarian) | TGI (IGROV1 ovarian) | GI50 (NCI-H460 lung) | TGI (NCI-H460 lung) | GI50 (OVCAR-3 ovarian) | TGI (OVCAR-3 ovarian) | GI50 (SK-MEL-28 melanoma) | TGI (SK-MEL-28 melanoma) | GI50 (SK-OV-3 ovarian) | TGI (SK-OV-3 ovarian) | outcome (NCI-H460 lung) | outcome (OVCAR-3 ovarian) | outcome (SK-OV-3 ovarian)
CC/C=C\C[C@H](F)C/C=C1/C(=O)C=C[C@@H]1C/C=C\CCCC(=O)O | 1.05 µM | 11.1 µM | 5.3 µM | 12.2 µM | 3.41 µM | 16.8 µM | 9.97 µM | 32.1 µM | 9.35 µM | 30.9 µM | 7.96 µM | 22.1 µM | 4.98 µM | 11.4 µM | 12.6 µM | > 32.5 µM |  |  | 
CS(=O)(=O)c1ccc(-n2nc(C(F)(F)F)cc2OC2CCCC2)cc1 | 38.3 µM | > 100 µM | 29 µM | 81.7 µM | 24 µM | 59.3 µM | > 100 µM | > 100 µM | 27.8 µM | > 100 µM | 32.9 µM | > 100 µM | > 100 µM | > 100 µM | 51.8 µM | > 100 µM |  |  | 
COc1ccc2c(c1)CCCN2c1c2ccccc2nc2ccccc12 | 0.353 µM | 71.6 µM | 0.269 µM | 0.849 µM | 0.298 µM | 1.09 µM | 0.811 µM | 34.7 µM | 0.358 µM | > 100 µM | 0.275 µM | 0.75 µM | 0.878 µM | > 100 µM | 0.652 µM | > 100 µM |  |  | 
Cc1cc2c(cc1Cl)SC1=NN(C)S(=O)N1S2(=O)=O (stereo unspecified) | > 100 µM | > 100 µM | > 100 µM | > 100 µM | > 100 µM | > 100 µM | > 100 µM | > 100 µM | > 100 µM | > 100 µM | > 100 µM | > 100 µM | > 100 µM | > 100 µM | > 100 µM | > 100 µM |  |  | 
COc1cc2ncn(-c3cc(OCc4cccs4)c(C(N)=O)s3)c2cc1OC | 0.806 µM | > 25 µM | 1.11 µM | > 13.9 µM | 0.804 µM | 8.73 µM | 2.75 µM | > 25 µM | 1.06 µM | > 10.5 µM | 0.828 µM | > 6.89 µM | 7.62 µM | > 25 µM | 1.81 µM | > 20 µM |  |  | 
O=C(CCc1nnc2sc(-c3ccc(Cl)cc3Cl)nn12)c1nc2ccccc2[nH]1 | 0.265 µM | 0.974 µM | 1.09 µM | 2.65 µM | 1.24 µM | 5.52 µM | 0.953 µM | 6.35 µM | 0.988 µM | 2.39 µM | 0.491 µM | 1.71 µM | 0.452 µM | 1.68 µM | 1.77 µM | 3.46 µM |  |  | 
Nc1nccc(-c2c(-c3ccc(F)cc3)ncn2C2CCC(O)CC2)n1 (stereo unspecified) | 13.4 µM | > 25 µM | 7.1 µM | > 25 µM | 24.4 µM | > 25 µM | 4.32 µM | 24.8 µM | 4.95 µM | > 25 µM | 9.47 µM | > 25 µM | 14.8 µM | > 25 µM | 3.97 µM | 12.2 µM |  |  | 
COC1(OC)CC2OC1C1N=NN(C(=O)OC(C)(C)C)C21 (stereo unspecified) |  | > 100 µM |  | > 100 µM |  | 81.6 µM |  | > 100 µM |  | > 100 µM |  | > 100 µM |  | > 100 µM |  | > 100 µM |  |  | 
COc1ccc(C(=O)C#Cc2cnc(OC)nc2OC)cc1 | 2530 µM | 10800 µM |  | 42100 µM | 22100 µM |  | 20300 µM |  |  | 10.8 µM |  | 3.24 µM | 89800 µM | 3.47 µM |  | 27.2 µM | inactive | inactive | inactive
COc1ccc(-c2onc(N)c2-c2cc(OC)c3c(c2)OCO3)cc1 | 1.81 µM | > 88.6 µM | 2.2 µM | 6.86 µM | 1.87 µM | 7.53 µM | 8.44 µM | > 100 µM | 3 µM | 21.1 µM | 2.08 µM | 7.08 µM | 3.84 µM | > 100 µM | 3.79 µM | 22.6 µM |  |  | 
O=C1CCC(N2C(=O)c3ccccc3C2=O)C(=O)N1CO (stereo unspecified) | 30.5 µM | > 100 µM | > 100 µM | > 100 µM | 32.2 µM | 89.5 µM | 52.5 µM | > 100 µM | > 100 µM | > 100 µM | 67.4 µM | > 100 µM | > 100 µM | > 100 µM | > 100 µM | > 100 µM |  |  | 
CC(C)(C)c1cc(CCC(=O)Nc2ccc(Cl)cc2)nc(NC#N)n1 |  | > 100 µM |  | > 100 µM |  | > 100 µM |  | > 100 µM |  | > 100 µM |  | > 100 µM |  | > 100 µM |  | > 100 µM |  |  | 
Cc1ccc(-c2nc3nc(-c4ccccc4)nc(N4CCCNCC4)c3o2)cc1 | 1.89 µM | 4.23 µM | 1.96 µM | 3.66 µM | 0.726 µM | 2.49 µM | 1.74 µM | 3.39 µM | 1.86 µM | 3.53 µM | 1.84 µM | 3.32 µM | 1.84 µM | 3.28 µM | 1.81 µM | 3.27 µM |  |  | 
CCCC(=O)OCC1OC(n2cnc3c(=S)nc[nH]c32)C(OC(=O)CCC)C1OC(=O)CCC (stereo unspecified) | 1.79 µM | 17.4 µM | 4.57 µM | 18.9 µM | 2.6 µM | 9.96 µM | 10.3 µM | > 100 µM | 8.13 µM | > 100 µM | 0.92 µM | > 100 µM | 77.5 µM | > 100 µM | 0.804 µM | 69.8 µM |  |  | 
Nc1c(-c2ccc(Cl)cc2)[n+]([O-])c2ccccc2[n+]1[O-] |  | > 100 µM |  | > 100 µM |  | > 100 µM |  | > 100 µM |  | > 100 µM |  | > 100 µM |  | > 100 µM |  | > 100 µM |  |  | 
CC(SC(=S)N1CCOCC1)c1cc2oc(=O)n(C)c2cc1Cl (stereo unspecified) |  | > 100 µM |  | > 100 µM |  | > 100 µM |  | > 10 µM |  | > 100 µM |  | > 100 µM |  | > 100 µM |  | > 100 µM |  |  | 
